In brackets after ≈: the same amount, converted by molar mass. Activity calls are given as the source filed them. The calls are words filed in the database; no cut-off is given here.
Columns and labels:
Diaphorina citri [1] = experiment: Ovicidal activity against Diaphorina citri in 2 to 3 months old citrus plant assessed as inhibition of old egg hatch at 4 to 8 ug/mL by leaf dip bioassay; assay type: functional, organism-based
Diaphorina citri [2] = experiment: Insecticidal activity against fourth-instar nymphs of Diaphorina citri nymph in flush of citrus plants assessed as mortality measured on fifth-instar stage after 48 hr; assay type: functional
Diaphorina citri [3] = experiment: Inhibition of reproduction in fifth-instar nymphs of Diaphorina citri in flush of citrus plants assessed as fecundity of egg at 100 ug/ml measured 7 to 12 days after emergence; assay type: functional, organism-based
Diaphorina citri [4] = experiment: Inhibition of reproduction in fifth-instar nymphs of Diaphorina citri in flush of citrus plants assessed as viability of egg at 100 ug/ml measured 7 to 12 days after emergence; assay type: functional, organism-based
Diaphorina citri [5] = experiment: Ovicidal activity against Diaphorina citri in 2 to 3 months old citrus plant assessed as inhibition of old egg hatch at 128 ug/mL by leaf dip bioassay; assay type: functional; conditions: foliar
Diaphorina citri [6] = experiment: Inhibition of reproduction in fifth-instar nymphs of Diaphorina citri in flush of citrus plants assessed as viability of egg at 64 ug/ml measured 10 to 12 days after emergence relative to control; assay type: functional, organism-based
Diaphorina citri [7] = experiment: Insecticidal activity against first-instar nymphs of Diaphorina citri nymph in flush of citrus plants assessed as mortality measured on second-instar stage after 48 hr; assay type: functional
Diaphorina citri [8] = experiment: Inhibition of reproduction in fifth-instar nymphs of Diaphorina citri in flush of citrus plants assessed as fecundity of egg at 100 ug/ml measured 4 to 6 days after emergence; assay type: functional, organism-based
Diaphorina citri [9] = experiment: Inhibition of reproduction in fifth-instar nymphs of Diaphorina citri in flush of citrus plants assessed as viability of egg at 64 ug/ml measured 7 to 9 days after emergence relative to control; assay type: functional
Diaphorina citri [10] = experiment: Insecticidal activity against second-instar nymphs of Diaphorina citri nymph in flush of citrus plants assessed as mortality measured on third-instar stage after 48 hr; assay type: functional
Diaphorina citri [11] = experiment: Inhibition of reproduction in fifth-instar nymphs of Diaphorina citri in flush of citrus plants assessed as viability of egg at 100 ug/ml measured 0 to 3 days after emergence; assay type: functional, organism-based
Diaphorina citri [12] = experiment: Inhibition of reproduction in fifth-instar nymphs of Diaphorina citri in flush of citrus plants assessed as viability of egg at 100 ug/ml applied topically; assay type: functional, organism-based
Diaphorina citri [13] = experiment: Inhibition of reproduction in fifth-instar nymphs of Diaphorina citri in flush of citrus plants assessed as fecundity of egg at 32 to 64 ug/ml measured 4 to 6 days after emergence relative to control; assay type: functional; design: scale not given: the % may be the effect or the level left
Diaphorina citri [14] = experiment: Ovicidal activity against Diaphorina citri in 2 to 3 months old citrus plant assessed as inhibition of egg hatch measured 49 to 96 hr after egg laying by leaf dip bioassay; assay type: functional
Diaphorina citri [15] = experiment: Inhibition of reproduction in fifth-instar nymphs of Diaphorina citri in flush of citrus plants assessed as fecundity of egg at 100 ug/ml applied topically; assay type: functional, organism-based
Diaphorina citri [16] = experiment: Inhibition of reproduction in fifth-instar nymphs of Diaphorina citri in flush of citrus plants assessed as viability of egg at 64 ug/ml measured 4 to 6 days after emergence relative to control; assay type: functional
Diaphorina citri [17] = experiment: Ovicidal activity against Diaphorina citri in 2 to 3 months old citrus plant assessed as inhibition of egg hatch measured 0 to 48 hr after egg laying by leaf dip bioassay; assay type: functional
Diaphorina citri [18] = experiment: Ovicidal activity against Diaphorina citri in 2 to 3 months old citrus plant assessed as inhibition of egg hatch measured 0 to 48 hr prior egg laying by residual contact bioassay; assay type: functional
Diaphorina citri [19] = experiment: Inhibition of reproduction in fifth-instar nymphs of Diaphorina citri in flush of citrus plants assessed as fecundity of egg at 100 ug/ml measured 0 to 3 days after emergence; assay type: functional, organism-based
Diaphorina citri [20] = experiment: Inhibition of reproduction in fifth-instar nymphs of Diaphorina citri in flush of citrus plants assessed as fecundity of egg at 32 to 64 ug/ml measured 7 to 12 days after emergence relative to control; assay type: functional, organism-based
Diaphorina citri [21] = experiment: Inhibition of reproduction in fifth-instar nymphs of Diaphorina citri in flush of citrus plants assessed as fecundity of egg at 32 to 64 ug/ml measured 0 to 3 days after emergence relative to control; assay type: functional; design: scale not given: the % may be the effect or the level left
Diaphorina citri [22] = experiment: Induction of morphological abnormalities of fourth and fifth-instar nymphs of Diaphorina citri in flush of citrus plants at 32 to 64 ug/ml after 48 hr; assay type: functional, organism-based
Diaphorina citri [23] = experiment: Inhibition of reproduction in fifth-instar nymphs of Diaphorina citri in flush of citrus plants assessed as viability of egg at 32 to 64 ug/ml measured 0 to 3 days after emergence relative to control; assay type: functional
Diaphorina citri [24] = experiment: Ovicidal activity against Diaphorina citri in 2 to 3 months old citrus plant assessed as inhibition of old egg hatch at 64 ug/mL by residual contact bioassay; assay type: functional
Diaphorina citri [25] = experiment: Inhibition of reproduction in fifth-instar nymphs of Diaphorina citri in flush of citrus plants assessed as viability of egg at 100 ug/ml measured 4 to 6 days after emergence; assay type: functional, organism-based
Diaphorina citri [26] = experiment: Insecticidal activity against fifth-instar nymphs of Diaphorina citri nymph in flush of citrus plants assessed as mortality measured on fifth-instar stage after 48 hr; assay type: functional
Diaphorina citri [27] = experiment: Insecticidal activity against Diaphorina citri assessed as mortality at 100 ug/ml applied topically; assay type: functional, organism-based
Diaphorina citri [28] = experiment: Insecticidal activity against third- instar nymphs of Diaphorina citri nymph in flush of citrus plants assessed as mortality measured on fourth-instar stage after 48 hr; assay type: functional

Which inhibition (Diaphorina citri [1]) does the source give for `CC(COc1ccc(Oc2ccccc2)cc1)Oc1ccccn1` (stereo unspecified) [PYRIPROXYFEN] here?
The inhibition was “Active”.

What about the LC50 (Diaphorina citri [2]) of the same compound?
Its LC50 is 44.3 µg/mL (≈ 138 µM).

What about the Activity (Diaphorina citri [3]) of the same compound?
The Activity was “inactive”.

And the Activity (Diaphorina citri [4])?
The Activity was “inactive”.

And the inhibition at 128 µg/mL (Diaphorina citri [5])?
Its inhibition at 128 µg/mL is > 90%.

What about the Activity (Diaphorina citri [6]) of the same compound?
The Activity was “inactive”.

What about the LC50 (Diaphorina citri [7]) of the same compound?
Its LC50 is 17.6 µg/mL (≈ 54.8 µM).

What about the Activity (Diaphorina citri [8]) of the same compound?
The Activity was “Active”.

And the Activity (Diaphorina citri [9])?
Its Activity is 83%.

What about the LC50 (Diaphorina citri [10]) of the same compound?
The LC50 was 21.6 µg/mL (≈ 67.1 µM).

And the Activity (Diaphorina citri [11])?
The Activity was “Active”.

And the Activity (Diaphorina citri [12])?
Its Activity is “Active”.

What about the Activity (Diaphorina citri [13]) of the same compound?
Its Activity is 64%.

What about the inhibition (Diaphorina citri [14]) of the same compound?
The inhibition was “Dose-dependent effect”.

What about the LC50 (Diaphorina citri [14]; foliar) of the same compound?
Its LC50 is 37 µg/mL (≈ 115 µM).

What about the Activity (Diaphorina citri [15]) of the same compound?
Its Activity is “Active”.

And the Activity (Diaphorina citri [16])?
Its Activity is 59%.

What about the inhibition (Diaphorina citri [17]) of the same compound?
Its inhibition is “Dose-dependent effect”.

And the LC50 (Diaphorina citri [17]; foliar)?
The LC50 was 18.4 µg/mL (≈ 57.4 µM).

And the LC50 (Diaphorina citri [18])?
Its LC50 is 32.4 µg/mL (≈ 101 µM).

And the inhibition (Diaphorina citri [18])?
Its inhibition is “Dose-dependent effect”.

What about the Activity (Diaphorina citri [19]) of the same compound?
Its Activity is “inactive”.

And the Activity (Diaphorina citri [20])?
The Activity was “inactive”.

And the Activity (Diaphorina citri [21])?
The Activity was 58%.

What about the Activity (Diaphorina citri [22]) of the same compound?
Its Activity is “Active”.

And the Activity (Diaphorina citri [23])?
The Activity was 69%.

What about the inhibition at 64 µg/mL (Diaphorina citri [24]) of the same compound?
Its inhibition at 64 µg/mL is 70%.

What about the Activity (Diaphorina citri [25]) of the same compound?
Its Activity is “Active”.

And the LC50 (Diaphorina citri [26])?
The LC50 was 51.3 µg/mL (≈ 160 µM).

What about the Activity (Diaphorina citri [27]) of the same compound?
The Activity was “inactive”.

And the LC50 (Diaphorina citri [28])?
The LC50 was 25.2 µg/mL (≈ 78.6 µM).

— ChEMBL document CHEMBL3045744, “Effect of pyriproxyfen, a juvenile hormone mimic, on egg hatch, nymph development, adult emergence and reproduction of the Asian citrus psyllid, Diaphorina citri Kuwayama” (2010)
